# Laboratory results reported in patent publication US20240391881A1, “PHARMACEUTICAL USE AND PREPARATION METHOD FOR SUBSTITUTED HETEROARYL PHTHALAZINE DERIVATIVE” (ORIGIANT PHARMACEUTICAL CO., LTD., priority 2021, published 2024).
# Molecular target: T1, NLRP3 inflammasomes (Homo sapiens, UniProt Q96P20)
# T1 construct: endogenous in cells; host or cells: THP-1 human monocytic cells, PMA-differentiated, LPS-primed, nigericin-stimulated
# Assay: THP-1 pyroptosis test (cell pyroptosis test)
# Type: cell-based
# Settings: THP-1 cells differentiated with PMA, LPS stimulation, 10 μM nigericin, drug 0.001-10 μM, MTT absorbance 562 nm
# Description: In vitro activity screening was performed on small molecule compounds targeting inhibition on NLRP3 inflammasomes using THP-1 human monocytic cells (THP-1). THP-1 can be induced to differentiate into macrophages by phorbol ester (PMA), and the macrophages M1 can be induced to polarize by lipopolysaccharide (LPS) to release cytokines such as TNF-α, and IL-6, so as to establish a typical inflammatory model.
# THP-1 cells in a logarithmic growth phase were collected to prepare a 1×10^6 cells/mL cell suspension, PMA was added to achieve a final concentration of 300 ng/mL in the cell suspension, then 1×10^5 cells were inoculated to each well of a 96-well plate, and the cells were cultured in a 37° C., 5% CO2 cell incubator for 24 hours and induced to differentiate into macrophages.
# The next day, LPS was added to stimulate and induce the cells to produce an inflammatory model. […] In the 200 μL system of the 96-well plate, the final concentration of each drug was 0.001-10 μM, and the final concentration of the nigericin was 10 μM.
# Cell apoptosis protection rate=[(X−C0)/(C−C0)]×100%
# wherein, C, C0 and X represent average absorbance values of the normal cell group, the blank control group, and the drug treatment group, respectively. Finally, cell survival curves were fitted by Graphpad Prism 5.0 software and EC50 values of the compounds to be tested in inhibiting pyroptosis caused by NLRP3 inflammasomes were calculated.
# T1 sequence (Q96P20 whole entry): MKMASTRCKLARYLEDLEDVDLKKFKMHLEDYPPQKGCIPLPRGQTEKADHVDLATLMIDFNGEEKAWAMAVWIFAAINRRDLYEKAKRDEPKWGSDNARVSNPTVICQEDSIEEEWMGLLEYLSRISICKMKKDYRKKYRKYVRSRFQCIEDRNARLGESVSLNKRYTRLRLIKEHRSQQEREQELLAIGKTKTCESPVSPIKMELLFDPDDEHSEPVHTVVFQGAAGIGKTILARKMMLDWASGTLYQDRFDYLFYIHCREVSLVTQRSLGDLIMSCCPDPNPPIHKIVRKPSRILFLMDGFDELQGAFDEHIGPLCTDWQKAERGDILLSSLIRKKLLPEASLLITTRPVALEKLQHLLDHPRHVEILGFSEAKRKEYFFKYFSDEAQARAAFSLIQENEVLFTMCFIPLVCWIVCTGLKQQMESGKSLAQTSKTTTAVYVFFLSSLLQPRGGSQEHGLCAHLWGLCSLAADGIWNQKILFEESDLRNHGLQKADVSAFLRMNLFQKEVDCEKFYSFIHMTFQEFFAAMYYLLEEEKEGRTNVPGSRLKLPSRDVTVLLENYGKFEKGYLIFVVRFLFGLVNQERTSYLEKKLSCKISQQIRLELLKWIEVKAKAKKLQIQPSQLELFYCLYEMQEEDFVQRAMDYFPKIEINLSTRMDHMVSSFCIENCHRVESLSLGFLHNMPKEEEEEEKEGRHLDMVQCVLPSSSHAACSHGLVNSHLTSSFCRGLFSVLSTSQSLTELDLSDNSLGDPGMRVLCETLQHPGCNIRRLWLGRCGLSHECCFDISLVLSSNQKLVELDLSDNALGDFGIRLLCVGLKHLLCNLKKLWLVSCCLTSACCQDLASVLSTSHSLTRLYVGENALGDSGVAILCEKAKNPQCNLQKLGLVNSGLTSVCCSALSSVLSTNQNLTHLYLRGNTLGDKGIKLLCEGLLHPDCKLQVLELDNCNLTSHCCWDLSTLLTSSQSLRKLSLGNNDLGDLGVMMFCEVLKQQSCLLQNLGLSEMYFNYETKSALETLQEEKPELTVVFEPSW
row,Structure (SMILES),EC50
1,"Cc1ccc2c(N[C@@H]3CCCN(C)C3)nnc(-c3ccc(C(F)(F)F)cc3O)c2c1 [Compound 3, (R)-2-(7-methyl-4-((1-methylpiperidin-3-yl)amino)phthalazin-1-yl)-5-(trifluoromethyl)phenol]",< 20 nM
2,"Cc1ccc2c(-c3ccc(C(F)(F)F)cc3O)nnc(N[C@@H]3CCCN(C)C3)c2c1 [Compound 4, (R)-2-(6-methyl-4-((1-methylpiperidin-3-yl)amino)phthalazin-1-yl)-5-(trifluoromethyl)phenol]",< 20 nM
3,"COc1ccc2c(N[C@@H]3CCCN(C)C3)nnc(-c3ccc(C(F)(F)F)cc3O)c2c1 [Compound 5, (R)-2-(7-methoxy-4-((1-methylpiperidin-3-yl)amino)phthalazin-1-yl)-5-(trifluoromethyl)phenol]",< 20 nM
4,"COc1ccc2c(-c3ccc(C(F)(F)F)cc3O)nnc(N[C@@H]3CCCN(C)C3)c2c1 [Compound 6, (R)-2-(6-methoxy-4-((1-methylpiperidin-3-yl)amino)phthalazin-1-yl)-5-(trifluoromethyl)phenol]",< 20 nM
5,"C[C@@H](Nc1nnc(-c2ccc(C(F)(F)F)cc2O)c2ccccc12)c1ccccc1 [Compound 7, (R)-2-(4-((1-phenylethyl)amino)phthalazin-1-yl)-5-(trifluoromethyl)phenol]",> 1000 nM
6,"C[C@H](Nc1nnc(-c2ccc(C(F)(F)F)cc2O)c2ccccc12)c1ccccc1 [Compound 8, (S)-2-(4-((1-phenylethyl)amino)phthalazin-1-yl)-5-(trifluoromethyl)phenol]",> 1000 nM
7,"C[C@@H](Nc1nnc(-c2ccc(C(F)(F)F)cc2O)c2ccccc12)c1ccc(F)cc1 [Compound 9, (R)-2-(4-((1-(4-fluorophenyl)ethyl)amino)phthalazin-1-yl)-5-(trifluoromethyl)phenol]",> 1000 nM
8,"C[C@H](Nc1nnc(-c2ccc(C(F)(F)F)cc2O)c2ccccc12)c1ccc(F)cc1 [Compound 10, (S)-2-(4-((1-(4-fluorophenyl)ethyl)amino)phthalazin-1-yl)-5-(trifluoromethyl)phenol]",> 1000 nM
9,"CCCCNc1nnc(-c2ccc(C(F)(F)F)cc2O)c2ccccc12 [Compound 11, 2-(4-(butylamino)phthalazin-1-yl)-5-(trifluoromethyl)phenol]",> 1000 nM
10,"C[C@@H](Nc1nnc(-c2ccc(C(F)(F)F)cc2O)c2ccccc12)c1ccccn1 [Compound 12, (R)-2-(4-((1-(pyridin-2-yl)ethyl)amino)phthalazin-1-yl)-5-(trifluoromethyl)phenol]",> 1000 nM
11,"C[C@H](Nc1nnc(-c2ccc(C(F)(F)F)cc2O)c2ccccc12)c1ccccn1 [Compound 13, (S)-2-(4-((1-(pyridin-2-yl)ethyl)amino)phthalazin-1-yl)-5-(trifluoromethyl)phenol]",> 1000 nM
12,"CN1CCC[C@@H](Nc2nnc(-c3ccc(C(F)(F)F)cc3O)c3cc(F)ccc23)C1 [Compound 16, 2-(7-fluoro-4-{[(3R)-1-methylpiperidin-3-yl]amino}phthalazin-1-yl)-5-(trifluoromethyl)phenol]",< 20 nM
13,CN1CCC[C@@H](Nc2nnc(-c3ccc(C(F)(F)F)cc3O)c3ccncc23)C1 [Compound 17],< 20 nM
14,CN(C)[C@H]1CC[C@H](Nc2nnc(-c3ccc(C(F)(F)F)cc3O)c3ccccc23)CC1 [Compound 18],500 to 1000 nM
15,CN(C)[C@H]1CC[C@@H](Nc2nnc(-c3ccc(C(F)(F)F)cc3O)c3ccccc23)CC1 [Compound 19],500 to 1000 nM
16,"CC(C)(O)CNc1nnc(-c2ccc(C(F)(F)F)cc2O)c2ccccc12 [Compound 20, 2-(4-((2-hydroxy-2-methylpropyl)amino)phthalazin-1-yl)-5-(trifluoromethyl)phenol]",> 1000 nM
17,"Oc1cc(C(F)(F)F)ccc1-c1nnc(NCCN2CCOCC2)c2ccccc12 [Compound 21, 2-(4-((2-morpholinylethyl)amino)phthalazin-1-yl)-5-(trifluoromethyl)phenol]",> 1000 nM
18,"Oc1cc(C(F)(F)F)ccc1-c1nnc(N[C@@H]2CCCNC2)c2ccccc12 [Compound 22, (R)-2-(4-(piperidin-3-ylamino)phthalazin-1-yl)-5-(trifluoromethyl)phenol]",< 20 nM
19,"CCN1CCC[C@@H](Nc2nnc(-c3ccc(C(F)(F)F)cc3O)c3ccccc23)C1 [Compound 23, (R)-2-(4-((1-ethylpiperidin-3-yl)amino)phthalazin-1-yl)-5-(trifluoromethyl)phenol]",< 20 nM

row,Structure (SMILES),EC50
1,"CN1CC[C@@H](Nc2nnc(-c3ccc(C(F)(F)F)cc3O)c3ccccc23)C1 [Compound 24, (R)-2-(4-((1-methylpyrrolidin-3-yl)amino)phthalazin-1-yl)-5-(trifluoromethyl)phenol]",< 20 nM
2,"CCN1CC[C@@H](Nc2nnc(-c3ccc(C(F)(F)F)cc3O)c3ccccc23)C1 [Compound 25, (R)-2-(4-((1-ethylpyrrolidin-3-yl)amino)phthalazin-1-yl)-5-(trifluoromethyl)phenol]",< 20 nM
3,CN1CCC[C@@H]1CNc1nnc(-c2ccc(C(F)(F)F)cc2O)c2ccccc12 [Compound 26],500 to 1000 nM
4,"CCN1CCC[C@@H]1CNc1nnc(-c2ccc(C(F)(F)F)cc2O)c2ccccc12 [Compound 27, (R)-2-(4-(((1-ethylpyrrolidin-2-yl)methyl)amino)phthalazin-1-yl)-5-(trifluoromethyl)phenol]",500 to 1000 nM
5,CCN1CCC[C@H]1CNc1nnc(-c2ccc(C(F)(F)F)cc2O)c2ccccc12 [Compound 28],100 to 500 nM
6,"Oc1cc(C(F)(F)F)ccc1-c1nnc(N[C@@H]2CCc3ncccc32)c2ccccc12 [Compound 29, (R)-2-(4-((6,7-dihydro-5H-cyclopenta[b]pyridin-5-yl)amino)phthalazin-1-yl)-5-(trifluoromethyl)phenol]",20 to 100 nM
7,"Oc1cc(C(F)(F)F)ccc1-c1nnc(N[C@H]2CCc3ncccc32)c2ccccc12 [Compound 30, (S)-2-(4-((6,7-dihydro-5H-cyclopenta[b]pyridin-5-yl)amino)phthalazin-1-yl)-5-(trifluoromethyl)phenol]",20 to 100 nM
8,"CN1CCC[C@@H](Nc2nnc(-c3ccccc3O)c3ccccc23)C1 [Compound 31, (R)-2-(4-((1-methylpiperidin-3-yl)amino)phthalazin-1-yl)phenol]",500 to 1000 nM
9,"CC(=O)N1CCC[C@@H](Nc2nnc(-c3ccc(C(F)(F)F)cc3O)c3ccccc23)C1 [Compound 32, (R)-1-(3-((4-(2-hydroxy-4-(trifluoromethyl)phenyl)phthalazin-1-yl)amino)piperidin-1-yl)ethane-1-one]",20 to 100 nM
10,"CN1CCC(Nc2nnc(-c3ccc(C(F)(F)F)cc3O)c3ccccc23)CC1 [Compound 35, 2-(4-((1-methylpiperidin-4-yl)amino)phthalazin-1-yl)-5-(trifluoromethyl)phenol]",500 to 1000 nM
11,"CN1CCC[C@@H](Nc2nnc(-c3ccc(C(F)(F)F)cc3O)c3ncn(C)c23)C1 [Compound 36, (R)-2-(1-methyl-7-((1-methylpiperidin-3-yl)amino)-1H-imidazo[4,5-d]pyridazin-4-yl)-5-(trifluoromethyl)phenol]",500 to 1000 nM
12,"CN1CCC[C@@H](Nc2nnc(-c3ccc(C(F)(F)F)cc3O)c3c2ncn3C)C1 [Compound 37, (R)-2-(1-methyl-4-((1-methylpiperidin-3-yl)amino)-1H-imidazo[4,5-d]pyridazin-7-yl)-5-(trifluoromethyl)phenol]",< 20 nM
13,"Cc1ccc(-c2nnc(N[C@@H]3CCCN(C)C3)c3ccccc23)c(O)c1 [Compound 40, (R)-5-methyl-2-(4-((1-methylpiperidin-3-yl)amino)phthalazin-1-yl)phenol]",< 20 nM
14,"CN1CCC[C@@H](Nc2nnc(-c3ccc(OC(F)(F)F)cc3O)c3ccccc23)C1 [Compound 41, (R)-2-(4-((1-methylpiperidin-3-yl)amino)phthalazin-1-yl)-5-(trifluoromethoxy)phenol]",< 20 nM
15,"CN1CCC[C@@H](Nc2nnc(-c3ccc(C(F)(F)F)cc3O)c3ccc(P(C)(C)=O)cc23)C1 [Compound 43, (R)-(1-(2-hydroxy-4-(trifluoromethyl)phenyl)-4-((1-methylpiperidin-3-yl)amino)phthalazin-6-yl)dimethylphosphine oxide]",500 to 1000 nM
16,"CN1CCC[C@@H](Nc2nnc(-c3ccc(F)cc3O)c3ccccc23)C1 [Compound 44, (R)-5-fluoro-2-(4-((1-methylpiperidin-3-yl)amino)phthalazin-1-yl)phenol]",20 to 100 nM
17,"CN1CCC[C@@H](Nc2nnc(-c3ccc(C(F)(F)F)cc3O)c3cc(P(C)(C)=O)ccc23)C1 [Compound 45, (R)-(4-(2-hydroxy-4-(trifluoromethyl)phenyl)-1-((1-methylpiperidin-3-yl)amino)phthalazin-6-yl)dimethylphosphine oxide]",500 to 1000 nM
18,"CN1CCC[C@@H](Nc2nnc(-c3cc(F)ccc3O)c3ccccc23)C1 [Compound 46, (R)-4-fluoro-2-(4-((1-methylpiperidin-3-yl)amino)phthalazin-1-yl)phenol]",20 to 100 nM
19,"Cc1ccc(O)c(-c2nnc(N[C@@H]3CCCN(C)C3)c3ccccc23)c1 [Compound 47, (R)-4-methyl-2-(4-((1-methylpiperidin-3-yl)amino)phthalazin-1-yl)phenol]",> 1000 nM
